Source: patent US12264156B2, “Compounds and pharmaceutical compositions thereof for the treatment of diseases” (GALAPAGOS NV, priority 2018, dated 2025)

Legend:
Type in all cases: biochemical
Conditions in all cases: ADP-Glo SIK kinase assay
[1] = biological target: T1, SIK1 (Homo sapiens, UniProt P57059); assay: ADP-Glo kinase assay, SIK1
T1 construct: purchased Carna Biosciences 02-131
Description: (§1) The ADP-Glo™ kinase assay is a luminescent technology assay which measures the ADP formed from a kinase reaction. […] In a second step the kinase reactions are terminated and all the remaining ATP is depleted. In a final step the ADP is converted into ATP and this newly synthesized ATP is measured by using a luciferase/luciferin reaction. The generated light is measured using an Envision plate reader, wherein the luminescent signal obtained positively correlates with the kinase activity.
(§2) 1% DMSO and 10 μM staurosporine final concentrations are used as negative and positive controls.
(§3) 2 μL enzyme-substrate mixture is added to the assay plates.
(§4) The reaction is started by adding 2 μL diluted ATP on the assay plates. Plates are centrifuged for a few seconds at 1000 rpm and gently shaken for 2 min followed by an incubation at RT for 120 min.
(§5) The reactions are stopped and the unconsumed ATP is depleted by adding 5 μL ADP-Glo Reagent (Promega, Cat #V912B) to the reaction. The plates are centrifuged for a few seconds at 1000 rpm and incubated at RT for 40 min (ATP depletion).
(§6) The ADP is converted to ATP and luciferase and luciferin is introduced to detect ATP by adding 10 μL Kinase Detection Reagent (Promega, Cat #V913B+V914B) to the reaction. The plates are centrifuged for a few seconds at 1000 rpm and incubated at RT for 30 min (ADP detection).
(§7) Luminescence is measured on an Envision plate reader (PerkinElmer Inc.).

[2] = biological target: T2, SIK3 (Homo sapiens, UniProt Q9Y2K2); assay: ADP-Glo kinase assay, SIK3
T2 construct: purchased SignalChem S12-11G-100
T2 sequence (Q9Y2K2 whole entry): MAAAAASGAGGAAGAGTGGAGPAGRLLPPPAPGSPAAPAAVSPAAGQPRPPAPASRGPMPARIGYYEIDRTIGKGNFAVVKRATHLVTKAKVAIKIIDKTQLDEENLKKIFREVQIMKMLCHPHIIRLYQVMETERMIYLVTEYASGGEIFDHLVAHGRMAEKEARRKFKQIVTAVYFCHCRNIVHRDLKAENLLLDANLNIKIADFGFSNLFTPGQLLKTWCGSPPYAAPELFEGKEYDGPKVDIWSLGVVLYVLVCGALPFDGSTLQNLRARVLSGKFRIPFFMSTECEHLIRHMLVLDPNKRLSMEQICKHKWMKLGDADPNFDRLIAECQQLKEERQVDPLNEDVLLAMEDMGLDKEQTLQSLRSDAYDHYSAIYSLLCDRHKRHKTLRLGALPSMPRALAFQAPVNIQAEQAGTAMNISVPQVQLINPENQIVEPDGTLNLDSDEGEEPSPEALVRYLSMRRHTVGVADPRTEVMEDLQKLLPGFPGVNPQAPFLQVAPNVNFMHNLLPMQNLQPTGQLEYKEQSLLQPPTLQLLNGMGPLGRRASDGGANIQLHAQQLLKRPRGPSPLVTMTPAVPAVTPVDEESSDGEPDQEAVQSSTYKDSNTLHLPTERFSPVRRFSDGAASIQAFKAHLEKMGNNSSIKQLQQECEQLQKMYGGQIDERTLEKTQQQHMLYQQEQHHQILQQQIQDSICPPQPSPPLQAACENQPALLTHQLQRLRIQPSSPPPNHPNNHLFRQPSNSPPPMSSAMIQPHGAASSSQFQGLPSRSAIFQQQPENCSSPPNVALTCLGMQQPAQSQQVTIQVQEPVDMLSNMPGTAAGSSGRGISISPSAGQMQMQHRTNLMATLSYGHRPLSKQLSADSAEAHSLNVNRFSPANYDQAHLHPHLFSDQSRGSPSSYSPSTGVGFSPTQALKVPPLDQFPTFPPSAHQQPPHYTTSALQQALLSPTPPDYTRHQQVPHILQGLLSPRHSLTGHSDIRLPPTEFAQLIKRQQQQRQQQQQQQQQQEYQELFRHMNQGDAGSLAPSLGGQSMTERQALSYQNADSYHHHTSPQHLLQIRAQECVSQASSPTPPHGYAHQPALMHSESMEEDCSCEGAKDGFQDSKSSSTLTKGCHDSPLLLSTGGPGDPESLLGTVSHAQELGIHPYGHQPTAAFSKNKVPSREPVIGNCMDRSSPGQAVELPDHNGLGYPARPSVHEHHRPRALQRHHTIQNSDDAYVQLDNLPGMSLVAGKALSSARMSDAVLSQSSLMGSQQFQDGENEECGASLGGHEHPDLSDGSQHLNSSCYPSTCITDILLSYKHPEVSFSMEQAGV
Description: as §1, §2, §3, §4, §5, §6, §7

[3] = biological target: T3, SIK2 (Homo sapiens, UniProt Q9H0K1); assay: ADP-Glo kinase assay, SIK2
T3 construct: purchased ThermoFisher Scientific PV4792
T3 sequence (Q9H0K1 whole entry): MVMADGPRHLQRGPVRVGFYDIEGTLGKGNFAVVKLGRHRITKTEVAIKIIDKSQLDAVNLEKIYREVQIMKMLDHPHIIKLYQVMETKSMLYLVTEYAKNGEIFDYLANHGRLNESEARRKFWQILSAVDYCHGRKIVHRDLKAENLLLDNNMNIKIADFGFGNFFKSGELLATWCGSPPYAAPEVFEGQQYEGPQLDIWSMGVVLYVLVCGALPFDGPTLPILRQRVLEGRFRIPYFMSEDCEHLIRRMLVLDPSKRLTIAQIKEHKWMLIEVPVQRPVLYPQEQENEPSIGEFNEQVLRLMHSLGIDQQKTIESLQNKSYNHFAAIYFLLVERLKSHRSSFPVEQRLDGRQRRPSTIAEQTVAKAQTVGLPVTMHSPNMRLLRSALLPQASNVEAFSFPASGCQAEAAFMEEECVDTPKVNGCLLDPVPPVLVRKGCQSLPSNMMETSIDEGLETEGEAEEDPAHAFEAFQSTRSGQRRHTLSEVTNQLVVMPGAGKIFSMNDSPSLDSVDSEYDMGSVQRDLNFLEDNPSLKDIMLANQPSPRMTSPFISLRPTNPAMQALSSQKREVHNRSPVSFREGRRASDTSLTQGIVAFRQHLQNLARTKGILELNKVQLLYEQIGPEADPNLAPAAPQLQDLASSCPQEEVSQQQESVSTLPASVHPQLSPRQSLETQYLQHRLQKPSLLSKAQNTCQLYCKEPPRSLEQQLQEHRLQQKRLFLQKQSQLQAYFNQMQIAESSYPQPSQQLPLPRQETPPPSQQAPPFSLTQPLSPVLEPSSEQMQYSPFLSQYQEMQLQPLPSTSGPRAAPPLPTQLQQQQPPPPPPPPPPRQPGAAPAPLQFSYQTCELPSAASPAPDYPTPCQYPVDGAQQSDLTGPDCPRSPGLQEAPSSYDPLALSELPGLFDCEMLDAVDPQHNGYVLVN
Description: as §1, §2, §3, §4, §5, §6, §7

T1 sequence (P57059 whole entry): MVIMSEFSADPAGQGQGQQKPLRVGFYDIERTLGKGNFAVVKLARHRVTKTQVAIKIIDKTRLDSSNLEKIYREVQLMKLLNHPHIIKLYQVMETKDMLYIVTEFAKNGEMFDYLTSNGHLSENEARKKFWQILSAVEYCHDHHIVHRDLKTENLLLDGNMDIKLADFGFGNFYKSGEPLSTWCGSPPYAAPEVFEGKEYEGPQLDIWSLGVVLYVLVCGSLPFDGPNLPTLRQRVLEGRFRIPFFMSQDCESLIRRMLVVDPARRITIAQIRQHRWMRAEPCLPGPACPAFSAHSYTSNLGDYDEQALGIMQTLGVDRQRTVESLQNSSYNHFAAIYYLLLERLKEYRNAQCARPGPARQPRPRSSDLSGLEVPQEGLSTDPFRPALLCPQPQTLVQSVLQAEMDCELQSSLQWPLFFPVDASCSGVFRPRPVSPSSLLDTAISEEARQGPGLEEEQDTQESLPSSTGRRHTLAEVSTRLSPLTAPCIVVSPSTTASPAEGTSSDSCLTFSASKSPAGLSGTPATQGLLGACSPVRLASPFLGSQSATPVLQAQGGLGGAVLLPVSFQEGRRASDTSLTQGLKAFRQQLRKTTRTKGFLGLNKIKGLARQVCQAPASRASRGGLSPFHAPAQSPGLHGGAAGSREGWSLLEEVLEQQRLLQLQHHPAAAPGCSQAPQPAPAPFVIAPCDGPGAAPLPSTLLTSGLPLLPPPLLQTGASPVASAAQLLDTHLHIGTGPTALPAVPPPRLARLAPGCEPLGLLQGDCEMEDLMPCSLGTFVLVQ

IC50 [1] | IC50 [2] | IC50 [3] | Compound
10 to 100 nM | 0.01 to 10 nM | 0.01 to 10 nM | COc1cc(-c2cnc3cc(OCC4CCN(C)C4)ccn23)cc(OC(F)F)c1C(=O)NC1CC1 (stereo not drawn) [compound 144, N-cyclopropyl-2-(difluoromethoxy)-6-methoxy-4-[7-[(1-methylpyrrolidin-3-yl)methoxy]imidazo[1,2-a]pyridin-3-yl]benzamide]
0.01 to 10 nM | 0.01 to 10 nM | 0.01 to 10 nM | COc1cc(-c2cnc3cc(OCCNc4ncccn4)ccn23)cc(OC(F)F)c1C(=O)NC1CC1 [compound 368, N-cyclopropyl-2-(difluoromethoxy)-6-methoxy-4-[7-[2-(pyrimidin-2-ylamino)ethoxy]imidazo [1,2-a]pyridin-3-yl]benzamide]
0.01 to 10 nM | 0.01 to 10 nM | 0.01 to 10 nM | COc1cc(-c2cnc3cc(OCCN(C)c4ncccn4)ccn23)cc(OC(F)F)c1C(=O)NC1CC1 [compound 238, N-cyclopropyl-2-(difluoromethoxy)-6-methoxy-4-[7-[2-[methyl(pyrimidin-2-yl)amino]ethoxy]imidazo [1,2-a]pyridin-3-yl]benzamide]
10 to 100 nM | 0.01 to 10 nM | 0.01 to 10 nM | COc1cc(-c2cnc3cc(OCCN4CCS(=O)(=O)CC4)ccn23)cc(OC(F)F)c1C(=O)NC1CC1 [compound 22, N-cyclopropyl-2-(difluoromethoxy)-4-[7-[2-(1,1-dioxo-1,4-thiazinan-4-yl)ethoxy]imidazo[1,2-a]pyridin-3-yl]-6-methoxy-benzamide]
10 to 100 nM | 0.01 to 10 nM | 0.01 to 10 nM | COc1cc(-c2cnc3cc(OCCN4CCOC(C(F)(F)F)C4)ccn23)cc(OC(F)F)c1C(=O)NC1CC1 (stereo not drawn) [compound 179, N-cyclopropyl-2-(difluoromethoxy)-6-methoxy-4-[7-[2-[2-(trifluoromethyl)morpholin-4-yl]ethoxy]imidazo[1,2-a]pyridin-3-yl]benzamide]
10 to 100 nM | 0.01 to 10 nM | 0.01 to 10 nM | COc1cc(-c2cnc3cc(OCCN4CCOC(C)(C)C4)ccn23)cc(OC(F)F)c1C(=O)NC1CC1 [compound 194, N-cyclopropyl-2-(difluoromethoxy)-4-[7-[2-(2,2-dimethylmorpholin-4-yl)ethoxy]imidazo[1,2-a]pyridin-3-yl]-6-methoxy-benzamide]
> 500 nM | 10 to 100 nM | 10 to 100 nM | Cc1cc(-c2cnc3cc(OCCN4CCOCC4)ccn23)cc(OC(F)F)c1C(=O)NCC(F)(F)F [compound 243, 2-(difluoromethoxy)-6-methyl-4-[7-(2-morpholinoethoxy)imidazo[1,2-a]pyridin-3-yl]-N-(2,2,2-trifluoroethyl)benzamide]
10 to 100 nM | 0.01 to 10 nM | 0.01 to 10 nM | COc1cc(-c2cnc3cc(OCC4CCCCN4)ccn23)cc(OC(F)F)c1C(=O)NC1CC1 (stereo not drawn) [compound 119, N-cyclopropyl-2-(difluoromethoxy)-6-methoxy-4-[7-(2-piperidylmethoxy)imidazo[1,2-a]pyridin-3-yl]benzamide]
10 to 100 nM | 0.01 to 10 nM | 0.01 to 10 nM | COc1cc(-c2cnc3cc(OC[C@H]4CNCC[C@@H]4O)ccn23)cc(OC(F)F)c1C(=O)NC1CC1 (racemic) [Cpd 373, N-cyclopropyl-2-(difluoromethoxy)-4-[7-[[(3R,4S)-4-hydroxy-3-piperidyl]methoxy]imidazo [1,2-a]pyridin-3-yl]-6-methoxy-benzamide/ N-cyclopropyl-2-(difluoromethoxy)-4-[7-[[(3S,4R)-4-hydroxy-3-piperidyl]methoxy]imidazo [1,2-a]pyridin-3-yl]-6-methoxy-benzamide mixture]
10 to 100 nM | 0.01 to 10 nM | 0.01 to 10 nM | COc1cc(-c2cnc3cc(OCC(F)(F)F)ccn23)cc(OC(F)F)c1C(=O)NC1CC1 [compound 91, N-cyclopropyl-2-(difluoromethoxy)-6-methoxy-4-[7-(2,2,2-trifluoroethoxy)imidazo [1,2-a]pyridin-3-yl]benzamide]
100 to 500 nM | 0.01 to 10 nM | 0.01 to 10 nM | O=C1c2c(cc(-c3cnc4cc(OCCN5CCOCC5)ccn34)cc2OC(F)F)CCN1CC(F)F [Cpd 247, 2-(2,2-difluoroethyl)-8-(difluoromethoxy)-6-[7-(2-morpholinoethoxy)imidazo[1,2-a]pyridin-3-yl]-3,4-dihydroisoquinolin-1-one]
10 to 100 nM | 0.01 to 10 nM | 0.01 to 10 nM | COc1cc(-c2cnc3cc(OCCCN4CCc5c(ncn5C)C4)ccn23)cc(OC(F)F)c1C(=O)NC1CC1 [compound 309, N-cyclopropyl-2-(difluoromethoxy)-6-methoxy-4-[7-[3-(1-methyl-6,7-dihydro-4H-imidazo[4,5-c]pyridin-5-yl)propoxy]imidazo[1,2-a]pyridin-3-yl]benzamide]
100 to 500 nM | 0.01 to 10 nM | 0.01 to 10 nM | COc1cc(-c2cnc3cc(OCC4(N)CCC4)ccn23)cc(OC(F)F)c1C(=O)NC1CC1 [compound 174, 4-[7-[(1-aminocyclobutyl)methoxy]imidazo[1,2-a]pyridin-3-yl]-N-cyclopropyl-2-(difluoromethoxy)-6-methoxy-benzamide]
> 500 nM | 10 to 100 nM | 100 to 500 nM | COc1cc(-c2cnc3cc(OC4CCCN(C)C4)ccn23)cc(OC)c1C(=O)NCC(F)(F)F (stereo not drawn) [Cpd 5, 2,6-dimethoxy-4-[7-[(1-methyl-3-piperidyl)oxy]imidazo[1,2-a]pyridin-3-yl]-N-(2,2,2-trifluoroethyl)benzamide]
100 to 500 nM | 0.01 to 10 nM | 10 to 100 nM | Cc1cc(-c2cnc3cc(OCCN4CCOCC4)ccn23)cc(OC(F)F)c1C(=O)NC1CC1 [compound 241, N-cyclopropyl-2-(difluoromethoxy)-6-methyl-4-[7-(2-morpholinoethoxy)imidazo[1,2-a]pyridin-3-yl]benzamide]
10 to 100 nM | 0.01 to 10 nM | 0.01 to 10 nM | COc1cc(-c2cnc3cc(OCCCN4CCc5ncncc5C4)ccn23)cc(OC(F)F)c1C(=O)NC1CC1 [compound 304, N-cyclopropyl-2-(difluoromethoxy)-4-[7-[3-(7,8-dihydro-5H-pyrido[4,3-d]pyrimidin-6-yl)propoxy]imidazo[1,2-a]pyridin-3-yl]-6-methoxy-benzamide]
100 to 500 nM | 0.01 to 10 nM | 10 to 100 nM | COc1cc(-c2cnc3cc(OCC4(C)CN(C(=O)OC(C)(C)C)C4)ccn23)cc2c1C(=O)N(CC(F)(F)F)CC2 [compound 249, tert-butyl 3-[[3-[8-methoxy-1-oxo-2-(2,2,2-trifluoroethyl)-3,4-dihydroisoquinolin-6-yl]imidazo[1,2-a]pyridin-7-yl]oxymethyl]-3-methyl-azetidine-1-carboxylate]
0.01 to 10 nM | 0.01 to 10 nM | 0.01 to 10 nM | COc1cc(-c2cnc3cc(OCCN(C)c4ccccc4)ccn23)cc(OC(F)F)c1C(=O)NC1CC1 [Cpd 184, N-cyclopropyl-2-(difluoromethoxy)-6-methoxy-4-[7-[2-(N-methylanilino)ethoxy]imidazo[1,2-a]pyridin-3-yl]benzamide]
10 to 100 nM | 0.01 to 10 nM | 0.01 to 10 nM | COc1cc(-c2cnc3cc(OCC4(C)CN(C(=O)OC(C)(C)C)C4)ccn23)cc(OC(F)F)c1C(=O)NC1CC1 [Cpd 188, tert-butyl 3-[[3-[4-(cyclopropylcarbamoyl)-3-(difluoromethoxy)-5-methoxy-phenyl]imidazo[1,2-a]pyridin-7-yl]oxymethyl]-3-methyl-azetidine-1-carboxylate]
10 to 100 nM | 0.01 to 10 nM | 0.01 to 10 nM | COc1cc(-c2cnc3cc(OCC4(C)CC4)ccn23)cc(OC(F)F)c1C(=O)NC1CC1 [compound 97, N-cyclopropyl-2-(difluoromethoxy)-6-methoxy-4-[7-[(1-methylcyclopropyl)methoxy]imidazo[1,2-a]pyridin-3-yl]benzamide]
10 to 100 nM | 0.01 to 10 nM | 0.01 to 10 nM | COC(=O)NCC(F)(F)COc1ccn2c(-c3cc(OC)c(C(=O)NC4CC4)c(OC(F)F)c3)cnc2c1 [Cpd 365, methyl N-[3-[3-[4-(cyclopropylcarbamoyl)-3-(difluoromethoxy)-5-methoxy-phenyl]imidazo[1,2-a]pyridin-7-yl]oxy-2,2-difluoro-propyl]carbamate]
10 to 100 nM | 0.01 to 10 nM | 0.01 to 10 nM | COc1cc(-c2cnc3cc(OCC(N)C4CCOCC4)ccn23)cc(OC(F)F)c1C(=O)NC1CC1 (stereo not drawn) [compound 135, 4-[7-(2-amino-2-tetrahydropyran-4-yl-ethoxy)imidazo[1,2-a]pyridin-3-yl]-N-cyclopropyl-2-(difluoromethoxy)-6-methoxy-benzamide]

Compound | IC50 [1] | IC50 [2] | IC50 [3]
COc1cc(-c2cnc3cc(OC4CC(C#N)C4)ccn23)cc(OC(F)F)c1C(=O)NC1CC1 (stereo not drawn) [compound 164, 4-[7-(3-cyanocyclobutoxy)imidazo [1,2-a]pyridin-3-yl]-N-cyclopropyl-2-(difluoromethoxy)-6-methoxy-benzamide] | 10 to 100 nM | 0.01 to 10 nM | 0.01 to 10 nM
